We go through 37 molecules from patent publication US20170073337A1, “DIHYDROTHIAZINE AND DIHYDROOXAZINE DERIVATIVES HAVING BACE1 INHIBITORY ACTIVITY” (Shionogi & Co., Ltd., priority 2014, published 2017).

Molecules are shown by their SMILES.

Series [1] in a line: Pharmacokinetic study (oral absorption). In kind it is in vivo. Particulars: bioavailability from AUCs of oral and intravenous administration; mouse or rat. Here is the method: (1l) Animal: mouse or rat (2) Breeding conditions: mouse or rat was allowed free access to the tap water and the solid food. (3) Dose and grouping: orally or intravenously administered at a predetermined dose: grouping was as follows (Dose depends on the compound) Oral administration: 1 to 30 mg/kg (n=2 to 3) Intravenous administration: 0.5 to 10 mg/kg (n=2 to 3) (4) Dosing formulation: for oral administration, in a solution or a suspension state; for intravenous administration, in a solubilized state (5) Dosing method: in oral administration, forcedly administer using a syringe attached a flexible feeding tube; in intravenous administration, administer from caudal vein using a syringe attached with a needle. (6) Evaluation items: blood was collected at the scheduled time, and the plasma concentration of the compound of the present invention was measured by LC/MS/MS (7) Statistical analysis: regarding the transition of the plasma concentration of the compound of the present invention, the area under the plasma concentration-time curve (AUC) was calculated by non-linear least squares program WinNonlin (Registered trademark), and the bioavailability (BA) of the compound of the present invention was calculated from the AUCs of the oral administration group and intravenous administration group

A short description of series [2]: Brain distribution studies. In kind it is in vivo. Particulars: rat, brain / plasma, iv, 0.5 mg/mL/kg, 30 minutes later, area ratio brain/plasma. How it is done:
Compound of the present invention was intravenously administered to a rat at 0.5 mg/mL/kg dosage. 30 minutes later, all blood was drawn from the abdominal aorta under isoflurane anesthesia for death from exsanguination. […] The obtained blood was used as plasma after centrifuging. The control plasma was added to the brain sample at 1:1. The control brain homogenate was added to the plasma sample at 1:1. Each sample was measured using LC/MS/MS. The obtained area ratio (a brain/plasma) was used for the brain Kp value.

Series [3] addresses T1, P-gp (MDR1 expressing LLC-PK1 cells) (Homo sapiens, UniProt P08183).
T1 construct: host or cells: LLC-PK1
In words: P-gp substrate test. The format is in vitro ADME. Particulars: net flux = Efflux Ratio in MDR1 expressing cells / Efflux Ratio in parent LLC-PK1 cells. Here is the method:
• 1. Cell line: • a. MDR/LLC-PK1 (Becton Dickinson) • b. LLC-PK1 (Becton Dickinson) • 2. Reference substrates: • a Digoxin (2 μM)
1. […] After incubation for designed time at 37° C., an aliquot (50 μL) of transport buffer in the donor and receiver side were collected. Assay was performed by duplicate or triplicate. 3. Reference substrate and the present invention in the aliquot was quantified by LC/MS/MS.
Pc(cm/sec)−Permeated amount (pmol)/area of cell membrane (cm2)/initial concentration (nM)/incubation time (sec)
The efflux ratio was calculated using the following equation:
Efflux Ratio=Basolateral-to-Apical Pe/Apical-to-Basolateral Pe
The net flux was calculated using the following equation
Net flux=Efflux Ratio in MDK1 expressing cells/Efflux Ratio in parent cells

T1 sequence (P08183 whole entry): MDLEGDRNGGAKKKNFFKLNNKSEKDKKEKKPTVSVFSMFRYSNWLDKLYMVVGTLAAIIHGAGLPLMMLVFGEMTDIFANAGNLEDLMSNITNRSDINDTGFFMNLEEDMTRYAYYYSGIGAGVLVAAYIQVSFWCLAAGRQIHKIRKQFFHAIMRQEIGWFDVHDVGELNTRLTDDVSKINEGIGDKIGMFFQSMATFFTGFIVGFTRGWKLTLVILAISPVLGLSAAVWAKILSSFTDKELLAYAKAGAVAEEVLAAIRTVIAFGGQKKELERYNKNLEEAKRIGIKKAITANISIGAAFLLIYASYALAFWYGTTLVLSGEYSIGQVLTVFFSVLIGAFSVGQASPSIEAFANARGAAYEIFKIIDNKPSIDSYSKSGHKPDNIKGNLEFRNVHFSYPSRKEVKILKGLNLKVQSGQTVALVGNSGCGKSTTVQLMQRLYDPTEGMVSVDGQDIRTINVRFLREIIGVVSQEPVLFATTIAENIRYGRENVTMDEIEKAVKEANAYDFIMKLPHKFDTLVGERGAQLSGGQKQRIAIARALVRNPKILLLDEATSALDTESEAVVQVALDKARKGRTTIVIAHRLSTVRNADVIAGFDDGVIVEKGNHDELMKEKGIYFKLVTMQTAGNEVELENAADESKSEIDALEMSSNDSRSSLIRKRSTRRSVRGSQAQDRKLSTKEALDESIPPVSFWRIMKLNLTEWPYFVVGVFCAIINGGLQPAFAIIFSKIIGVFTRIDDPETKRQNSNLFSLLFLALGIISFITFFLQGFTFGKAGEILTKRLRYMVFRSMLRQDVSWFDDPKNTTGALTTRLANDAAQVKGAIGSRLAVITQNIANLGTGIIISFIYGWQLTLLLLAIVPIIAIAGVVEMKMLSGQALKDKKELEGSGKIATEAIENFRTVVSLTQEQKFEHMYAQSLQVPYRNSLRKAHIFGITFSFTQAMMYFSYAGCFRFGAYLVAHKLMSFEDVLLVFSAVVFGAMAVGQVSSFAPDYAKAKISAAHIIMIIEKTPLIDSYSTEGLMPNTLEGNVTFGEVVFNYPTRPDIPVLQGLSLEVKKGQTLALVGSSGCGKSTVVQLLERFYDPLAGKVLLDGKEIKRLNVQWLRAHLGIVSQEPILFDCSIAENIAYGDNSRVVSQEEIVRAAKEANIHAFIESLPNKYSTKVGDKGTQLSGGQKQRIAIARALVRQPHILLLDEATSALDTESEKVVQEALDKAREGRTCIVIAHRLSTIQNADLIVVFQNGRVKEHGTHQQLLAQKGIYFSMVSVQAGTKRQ

With `C[C@]1(c2cc(NC(=O)c3ccc(C#N)cn3)ccc2F)N=C(N)O[C@H](CF)[C@@H]1OCC(F)(F)F` [Compound I-10], the BA_% in series [1] came to 46.3%. The Kp at 0.5 h in series [2] was determined as 1.1. The “ER ratio (Cell: MDR1/LLC-PK1)” value in series [3] is 4.
In series [1], `C[C@]1(c2cc(NC(=O)c3cnc(OCF)cn3)ccc2F)N=C(N)O[C@H](CF)[C@@H]1OCC(F)(F)F` [Compound I-12] had a BA_% of 47.4%. In series [2], the Kp at 0.5 h came out at 1.
In series [1], `C[C@H](F)[C@H]1OC(N)=N[C@](C)(c2cc(NC(=O)c3ccc(C#N)cn3)ccc2F)[C@H]1F` [Compound I-13] registered a BA_% of 47.3%. Besides, the concentration ratio (Kp) at 0.5 h in series [2] worked out at 0.56. For the same molecule, the “ER ratio (Cell: MDR1/LLC-PK1)” value in series [3] stood at 2.4.
The like results for `C[C@@H](F)[C@H]1OC(N)=N[C@](C)(c2cc(NC(=O)c3ccc(C#N)cn3)ccc2F)[C@H]1F` [Compound I-15] were, in that order, 37.4%, 0.79 and 2.7.
For the molecule `COc1cnc(C(=O)Nc2ccc(F)c([C@@]3(C)N=C(N)O[C@H]([C@H](C)F)[C@@H]3F)c2)cn1` [Compound I-17], in series [3], the “ER ratio (Cell: MDR1/LLC-PK1)” value is given as 0.73.
In series [1], `CO[C@H]1[C@@H](CF)OC(N)=N[C@]1(C)c1cc(NC(=O)c2cnc(OCF)cn2)ccc1Cl` [Compound I-19] returned a BA_% of 39.1%. In series [2], the Kp at 0.5 h was 0.51.
`CO[C@H]1[C@@H](CF)OC(N)=N[C@]1(C)c1cc(NC(=O)c2cnc(OCF)cn2)ccc1F` [Compound I-24] yielded a BA_% in series [1] of 44%.
With `C[C@H]1[C@@H](C(F)F)OC(N)=N[C@]1(C)c1cc(NC(=O)c2ccc(C#N)cn2)ccc1F` [Compound I-31], the “ER ratio (Cell: MDR1/LLC-PK1)” value in series [3] is 2.9.
On the same count and under the same terms, with `C[C@H]1[C@@H](C(F)F)OC(N)=N[C@]1(C)c1cc(NC(=O)c2cnc(OCF)cn2)ccc1F` [Compound I-33] the figure was 3.2; with `C[C@]1(c2cc(NC(=O)c3cnc(OCF)cn3)ccc2F)N=C(N)OCC12CC(F)(F)C2` [Compound I-44], 4.6.
Same read-out and setting: to `COc1ccc(C(=O)Nc2ccc(F)c([C@@]3(C)N=C(N)S[C@H](C)[C@@H]3F)c2)nc1` [Compound I-50] belongs 1.1.
`C[C@H]1SC(N)=N[C@](C)(c2cc(NC(=O)c3ccc(OCF)cn3)ccc2F)[C@H]1F` [Compound I-51]: the “ER ratio (Cell: MDR1/LLC-PK1)” value in series [3] is given as 0.56.
In turn, `Cc1cc(C#N)cnc1C(=O)Nc1ccc(F)c([C@@]2(C)N=C(N)S[C@H](C)[C@@H]2F)c1` [Compound I-52] had a BA_% in series [1] of 39.1%. For the same molecule, the Kp at 0.5 h in series [2] stood at 0.63. Besides, the “ER ratio (Cell: MDR1/LLC-PK1)” value in series [3] was determined as 2.1.
With `COc1cnc(C(=O)Nc2ccc(F)c([C@@]3(C)N=C(N)SCC34CC(F)(F)C4)c2)cn1` [Compound I-55], in series [3], the “ER ratio (Cell: MDR1/LLC-PK1)” value is on record as 0.9.
On the same count and under the same terms, with `C[C@]1(c2cc(NC(=O)c3ccc(C#N)cn3)ccc2F)N=C(N)SCC12CC(F)(F)C2` [Compound I-59] the figure was 1.2.
As to `C[C@H]1SC(N)=N[C@](C)(c2cc(NC(=O)c3cnc(OCF)cn3)ccc2F)C12CC(F)(F)C2` [Compound I-62], the Kp at 0.5 h in series [2] is 4.8. Also, in series [3], the “ER ratio (Cell: MDR1/LLC-PK1)” value is reported as 0.7.
On to `C[C@H]1SC(N)=N[C@](C)(c2cc(NC(=O)c3ncc(C#N)cc3Cl)ccc2F)[C@H]1F` [Compound I-64], for which the “ER ratio (Cell: MDR1/LLC-PK1)” value in series [3] was 3.2.
Turning to `C[C@H]1SC(N)=N[C@](C)(c2cc(NC(=O)c3cnc(C(F)F)cn3)ccc2F)[C@H]1F` [Compound I-65], the concentration ratio (Kp) at 0.5 h in series [2] was 1.7. Moreover, in series [3], the “ER ratio (Cell: MDR1/LLC-PK1)” value stood at 1.1.
Consider `CC[C@H]1SC(N)=N[C@](C)(c2cc(NC(=O)c3cnc(OCF)cn3)ccc2F)[C@H]1F` [Compound I-66], for which the “ER ratio (Cell: MDR1/LLC-PK1)” value in series [3] is listed as 0.6.
On the same count and under the same terms, to `CC[C@H]1SC(N)=N[C@](C)(c2cc(NC(=O)c3ccc(OCF)cn3)ccc2F)[C@H]1F` [Compound I-67] belongs 0.9; to `COc1cnc(C(=O)Nc2ccc(F)c([C@@]3(C)N=C(N)O[C@H]([C@@H](C)F)[C@@H]3F)c2)cn1` [Compound I-71], 0.92; to `CC(F)(F)[C@H]1OC(N)=N[C@](C)(c2cc(NC(=O)c3cnc(OCC(F)(F)F)cn3)ccc2F)[C@H]1F` [Compound I-75], 0.8.
For the molecule `CC#CCOc1cnc(C(=O)Nc2ccc(F)c([C@@]3(C)N=C(N)O[C@H](C(C)(F)F)[C@@H]3F)c2)cn1` [Compound I-76], in series [3], the “ER ratio (Cell: MDR1/LLC-PK1)” value turned out to be 1.
Still for that read-out and setting: to `CC(F)(F)[C@H]1OC(N)=N[C@](C)(c2cc(NC(=O)c3cnc(OCC(F)F)cn3)ccc2F)[C@H]1F` [Compound I-77] belongs 1.2; to `COCC(F)(F)[C@H]1OC(N)=N[C@](C)(c2cc(NC(=O)c3cnc(OCF)cn3)ccc2F)[C@H]1F` [Compound I-79], 1.7.
On the same count and under the same terms, to `C[C@]1(c2cc(NC(=O)c3cnc(OCF)cn3)ccc2F)N=C(N)O[C@H](C(F)(F)C2CC2)[C@@H]1F` [Compound I-82] belongs 0.96; to `COc1cnc(C(=O)Nc2ccc(F)c([C@@]3(C)N=C(N)O[C@H](C(F)F)[C@@H]3C)c2)cn1` [Compound I-86], 1.5; to `CO[C@H]1[C@@H](C)SC(N)=N[C@]1(C)c1cc(NC(=O)c2cnc(OCF)cn2)ccc1F` [Compound I-87], 3.4.
On the same count and under the same terms, with `COc1cnc(C(=O)Nc2ccc(F)c([C@@]3(C)N=C(N)S[C@H](C)[C@@H]3OC)c2)cn1` [Compound I-90] the figure was 3.1.
For the molecule `COC[C@H]1SC(N)=N[C@](C)(c2cc(NC(=O)c3cnc(OCF)cn3)ccc2F)[C@H]1F` [Compound I-91], the Kp at 0.5 h in series [2] is 1. The “ER ratio (Cell: MDR1/LLC-PK1)” value in series [3] came to 1.5.
Take `C[C@]1(c2cc(NC(=O)c3ccc(C#N)cn3)ccc2F)N=C(N)O[C@H](C2(F)CC2)[C@@H]1F` [Compound I-96]: the “ER ratio (Cell: MDR1/LLC-PK1)” value in series [3] is reported as 2.0.
Still for that read-out and setting: to `C[C@]1(c2cc(NC(=O)c3ccc(OCF)cn3)ccc2F)N=C(N)O[C@H](C2(F)CC2)[C@@H]1F` [Compound I-101] belongs 1.1; to `COc1cnc(C(=O)Nc2cccc([C@@]3(C)N=C(N)S[C@H](C)[C@@H]3F)c2)cn1` [Compound I-103], 1.4.
On the same count and under the same terms, with `C[C@H]1SC(N)=N[C@](C)(c2cccc(NC(=O)c3cnc(OCF)cn3)c2)[C@H]1F` [Compound I-104] the figure was 1.4; with `C[C@H]1SC(N)=N[C@](C)(c2cccc(NC(=O)c3cnc(C(F)F)cn3)c2)[C@H]1F` [Compound I-106], 1.9; with `COc1ccc(C(=O)Nc2ccc(F)c([C@@]3(C)N=C(N)S[C@H](C)[C@@H]3F)c2)nn1` [Compound I-108], 1.4.
Same read-out and setting: to `C[C@]1(c2cc(NC(=O)c3cnc(OCF)cn3)ccc2F)N=C(N)S[C@H](CO)[C@@H]1F` [Compound I-109] belongs 8.5.

Usually Kp stands for the ratio of the level in a tissue or fluid to that in plasma or blood.
